Measurements: patent publication US5354862A, “Preparation and the use of halopropargylated cyclic quaternary ammonium compounds as antimicrobial agents” (Rohm and Haas Company, priority 1993, dated 1994)
≈ marks a conversion by molar mass, not a printed value. Where two headings read alike, the source gives them in different places.

Experiments:
Aspergillus niger = experiment: Broth two-fold serial dilution MIC test; format: cell-based, Aspergillus niger (ATCC 6275)
Method in brief: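 Two-fold broth serial dilution from 500 ppm down to 0.25 ppm, compound stock in acetone/methanol/water 5:3:2. Vessels inoculated with standardized spore suspension harvested from agar slants, incubated at a species-appropriate temperature, then scored for growth/no growth. MIC is the lowest concentration giving complete growth inhibition.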

Escherichia coli = experiment: Broth two-fold serial dilution MIC test; format: cell-based, Escherichia coli (ATCC 11229); settings: Table 2, Ecol
Method in brief: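 Broth two-fold serial dilutions ran from 500 down to 0.25 ppm, prepared from a stock in acetone/methanol/water (5:3:2). Each tube received a standardized bacterial suspension and was incubated at a temperature suited to the species. MIC is the lowest concentration giving complete growth inhibition.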

Staphylococcus aureus = experiment: Broth two-fold serial dilution MIC test; format: cell-based, Staphylococcus aureus (ATCC 6538)
Method in brief: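 Broth two-fold serial dilution from 500 ppm down to 0.25 ppm, compound delivered from acetone/methanol/water stock, inoculated with standardized cell suspension and incubated at an organism-appropriate temperature. MIC is the lowest concentration giving complete growth inhibition.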

Pseudomonas aeruginosa = experiment: Broth two-fold serial dilution MIC test; format: cell-based, Pseudomonas aeruginosa (ATCC 15442)
Method in brief: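 Broth two-fold serial dilution MIC (500 to 0.25 ppm) was run against Pseudomonas aeruginosa, with compound from 1% stock in acetone/methanol/water 5:3:2. Vessels inoculated with standardized broth-grown cells were incubated, then scored for growth. MIC is the lowest concentration giving complete growth inhibition.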

Proteus mirabilis = experiment: MIC test, side-by-side comparison; format: cell-based; settings: Proteus mirabilis; Table 4 side-by-side; P. mirabilis
Excerpt: (§1) A minimum inhibitory concentration (MIC) value is obtained using a broth, two-fold serial dilution test performed as follows: A stock solution or dispersion of the test compound, typically at a concentration of 1%, is made in a 5:3:2 solvent solution of acetone. methanol, and water. A volume of the stock solution is dispensed into culture media to give an initial starting test concentration of 500 ppm compound.
(§2) When the test is ready to be done, each vessel in the dilution series, except the first vessel, contains an equal volume of compound free broth. The first vessel contains twice the volume of broth with the starting concentration of test compound. One half of the broth from the first vessel is transferred to the second vessel- After being mixed, one half the resulting volume is removed from the second vessel and transferred to the third vessel. The entire cycle is repeated sufficiently to give a series of concentrations amounting to 500, 250, 125, 63, 31, 16, 8, and 4, 2, 1, 0.5, 0.25 ppm respectively.
(§3) Each vessel is then inoculated with a cell suspension of the appropriate test organism. Bacteria are grown in broth, fungi on agar slants for a time and at a temperature appropriate to the species being tested, and algae are a mixture of green algae and blue-green bacteria grown in a nutrient media. At the end of the growth period, in the case of bacteria, the broth is vortexed to disperse the cells.
(§4) In the case of fungi, the spores are harvested by pipetting water onto the slant and dislodging the spores with a sterile loop. The cell/spore suspension is standardized by controlling incubation time, temperature, and the volume of the diluent. The suspension is then used to inoculate the vessels containing the broth compound.
(§5) The vessels are then incubated at the appropriate temperature. After the incubation, the vessels are examined for growth/no growth. The minimum inhibitory concentration (MIC) is defined as the lowest concentration of compound that results in complete inhibition of growth of the test organism.
(§6) These five compounds were tested side-by-side against six organisms, Pseudomonas aeruginosa (P. aeruginosa), Klebsiella pneurnoniae (K. pneumoniae), Enterobacter aerogenes (E. aerogenes), Proteus mirabilis (P. mirabilis), Staphylococcus aureus (S. aureus), and Aspergillus niger (A. niger). The MIC tests were performed as in example 6.

Enterobacter aerogenes = experiment: MIC test, side-by-side comparison; format: cell-based; settings: Klebsiella aerogenes, Table 4 side-by-side; E. Aerogenes
Excerpt: as §1, §2, §3, §4, §5, §6

Klebsiella pneurnoniae = experiment: MIC test, side-by-side comparison; format: cell-based; settings: read-out: MIC Values
Excerpt: as §1, §2, §3, §4, §5, §6

[1] = Aspergillus niger, Table 2, Anig, TSB media, read-out: MIC
[2] = Escherichia coli, M9G media, read-out: MIC
[3] = Escherichia coli, TSB media, read-out: MIC
[4] = Staphylococcus aureus, Table 2, Saur, M9G media, read-out: MIC
[5] = Staphylococcus aureus, Table 2, Saur, TSB media, read-out: MIC
[6] = Pseudomonas aeruginosa, Table 2, Psae, M9G media, read-out: MIC
[7] = Pseudomonas aeruginosa, Table 2, Psae, TSB media, read-out: MIC
[8] = Aspergillus niger, Table 4 side-by-side, A. niger, read-out: MIC Values
[9] = Staphylococcus aureus, Table 4 side-by-side, S. aureus, read-out: MIC Values
[10] = Pseudomonas aeruginosa, Table 4 side-by-side, P. aeruginosa, read-out: MIC Values

Structure (SMILES) | MIC (Aspergillus niger; [1]) | MIC (Escherichia coli; [2]) | MIC (Escherichia coli; [3]) | MIC (Staphylococcus aureus; [4]) | MIC (Staphylococcus aureus; [5]) | MIC (Pseudomonas aeruginosa; [6]) | MIC (Pseudomonas aeruginosa; [7]) | also measured
CCCCCCCC[N+]1(CC#CI)CCOCC1 [Compound 92, 4-n-octyl-4-(3-iodopropargyl)-morpholinium methanesulfonate] | 125 µg/mL | 32 µg/mL | 64 µg/mL | 8 µg/mL | 16 µg/mL | > 500 µg/mL | > 500 µg/mL | 
CCCC[N+]1(CC#CI)CCOCC1 [Compound 93, 4-n-butyl-4-(3-iodopropargyl)-morpholinium methanesulfonate] | 500 µg/mL | 125 µg/mL | 125 µg/mL | > 500 µg/mL | > 500 µg/mL | > 500 µg/mL | > 500 µg/mL | 
CC[N+]1(CC#CI)CCOCC1 [Compound 94, 4-ethyl-4-(3-iodopropargyl)-morpholinium methanesulfonate] | > 500 µg/mL | 125 µg/mL | 125 µg/mL | 500 µg/mL | > 500 µg/mL | > 500 µg/mL | > 500 µg/mL | 
CCCCCCCCCCOC(=O)CC[N+]1(CC#CI)CCOCC1 [Compound 95, 4-[2-(decyloxycarbonyl)]ethyl-4-(3-iodopropargyl)-morpholinium methanesulfonate] | 32 µg/mL | 16 µg/mL | 64 µg/mL | 32 µg/mL | 64 µg/mL | 500 µg/mL | 500 µg/mL | 
CCCCCCCCCCOC(=O)CC[N+]1(CC#CI)CCOCC1 [Compound 96] |  |  |  |  |  |  |  | MIC (Aspergillus niger; Table 2, Anig, TSB media): 16 ppm; MIC (Escherichia coli; M9G media): 8 ppm; MIC (Escherichia coli; TSB media): 64 ppm; MIC (Staphylococcus aureus; Table 2, Saur, M9G media): 32 ppm; MIC (Staphylococcus aureus; Table 2, Saur, TSB media): 64 ppm; MIC (Pseudomonas aeruginosa; Table 2, Psae, M9G media): 500 ppm; MIC (Pseudomonas aeruginosa; Table 2, Psae, TSB media): > 500 ppm
CCCCCCCCCCOC(=O)CC[N+]1(CC#CI)CCCC1 [Compound 97, 1-[2-(decyloxycarbonyl)]ethyl-1-(3-iodopropargyl)-pyrrolidinium 4-methylbenzenesulfonate] | 16 µg/mL | 16 µg/mL | 32 µg/mL | 8 µg/mL | 16 µg/mL | 250 µg/mL | 500 µg/mL | 
CCCCCCCCCCOC(=O)CC[N+]1(CC#CI)CCCC1 [Compound 98, l-[2-(decyloxycarbonyl)]ethyl-1-(3-iodopropargyl)-pyrrolidinium methanesulfonte] |  |  |  |  |  |  |  | MIC (Aspergillus niger; Table 2, Anig, TSB media): 16 ppm; MIC (Escherichia coli; M9G media): 16 ppm; MIC (Escherichia coli; TSB media): 32 ppm; MIC (Staphylococcus aureus; Table 2, Saur, M9G media): 8 ppm; MIC (Staphylococcus aureus; Table 2, Saur, TSB media): 32 ppm; MIC (Pseudomonas aeruginosa; Table 2, Psae, M9G media): 500 ppm; MIC (Pseudomonas aeruginosa; Table 2, Psae, TSB media): 500 ppm
IC#CCN1CCCCC1 [Compound J1, N-(3-iodo-2-propynyl)-piperidine, reference compound] |  |  |  |  |  |  |  | MIC (Aspergillus niger; [8]): 16 µg/mL (≈ 64.2 µM); MIC (Proteus mirabilis): 125 µg/mL (≈ 502 µM); MIC (Enterobacter aerogenes): 32 µg/mL (≈ 128 µM); MIC (Klebsiella pneurnoniae): 125 µg/mL (≈ 502 µM); MIC (Staphylococcus aureus; [9]): 125 µg/mL (≈ 502 µM); MIC (Pseudomonas aeruginosa; [10]): > 500 µg/mL
IC#CCN1CCOCC1 [Compound J2, N-(3-iodo-2-propynyl)-morpholine, reference compound] |  |  |  |  |  |  |  | MIC (Aspergillus niger; [8]): 8 µg/mL (≈ 31.9 µM); MIC (Proteus mirabilis): 500 µg/mL (≈ 1990 µM); MIC (Enterobacter aerogenes): 250 µg/mL (≈ 996 µM); MIC (Klebsiella pneurnoniae): 500 µg/mL (≈ 1990 µM); MIC (Staphylococcus aureus; [9]): 250 µg/mL (≈ 996 µM); MIC (Pseudomonas aeruginosa; [10]): > 500 µg/mL
